Results reported in the NIST ThermoML archive (doi:10.1016/j.tca.2013.03.008).
Several values for one entry are separate records, joined by “and”; a condition that tells them apart may be missing. Equal values may be shown once. ± gives the expanded uncertainty stated by the source.

How the values were obtained:
[1] = 101 kPa, Liquid; for viscosity: Capillary tube (Ostwald / Ubbelohde) method; for mass density: Vibrating tube method
[2] = xn = mol fraction of the nth substance listed; conditions: 101 kPa, Liquid; for viscosity: Capillary tube (Ostwald / Ubbelohde) method; for mass density: Vibrating tube method

`CCC(C)O` (stereo unspecified) [butan-2-ol] gave a viscosity ([1]; 298.15 K) of 2.998 ± 0.031 mPa·s, a mass density ([1]; 298.15 K) of 802.62 ± 0.31 kg/m3 and a viscosity ([1]; 308.15 K) of 2.17 ± 0.025 mPa·s. For the same molecule, the mass density ([1]; 308.15 K) was 794.13 ± 0.31 kg/m3, the viscosity ([1]; 318.15 K) was 1.476 ± 0.019 mPa·s and the mass density ([1]; 318.15 K) was 785.22 ± 0.31 kg/m3.
Molecule `CCC(C)O` (stereo unspecified) [butan-2-ol] + CCC(=O)CC has a viscosity ([2]; 298.15 K, x2 = 0) of 2.998 ± 0.031 mPa·s, a mass density ([2]; 298.15 K, x2 = 0) of 802.62 ± 0.31 kg/m3 and a viscosity ([2]; 308.15 K, x2 = 0) of 2.17 ± 0.025 mPa·s. For the same molecule, the mass density ([2]; 308.15 K, x2 = 0) was 794.13 ± 0.31 kg/m3, the viscosity ([2]; 318.15 K, x2 = 0) was 1.476 ± 0.019 mPa·s and the mass density ([2]; 318.15 K, x2 = 0) was 785.22 ± 0.31 kg/m3.
Work on `CCC(C)O` (stereo unspecified) [butan-2-ol] + CCOC(=O)CCl yielded a viscosity ([2]; 298.15 K, x1 = 1) of 2.998 ± 0.031 mPa·s, a mass density ([2]; 298.15 K, x1 = 1) of 802.62 ± 0.31 kg/m3 and a viscosity ([2]; 308.15 K, x1 = 1) of 2.17 ± 0.025 mPa·s. For the same molecule, the mass density ([2]; 308.15 K, x1 = 1) was 794.13 ± 0.31 kg/m3, the viscosity ([2]; 318.15 K, x1 = 1) was 1.476 ± 0.019 mPa·s and the mass density ([2]; 318.15 K, x1 = 1) was 785.22 ± 0.31 kg/m3.
With `CCOC(=O)CCl` [ethyl chloroethanoate] the viscosity ([1]; 298.15 K) was 1.095 ± 0.011 mPa·s, the mass density ([1]; 298.15 K) was 1144.11 ± 0.45 kg/m3 and the viscosity ([1]; 308.15 K) was 0.934 ± 0.009 mPa·s and 0.939 ± 0.009 mPa·s. For the same molecule, the mass density ([1]; 308.15 K) was 1131.46 ± 0.44 kg/m3, the viscosity ([1]; 318.15 K) was 0.816 ± 0.008 mPa·s and 0.815 ± 0.008 mPa·s and the mass density ([1]; 318.15 K) was 1118.74 ± 0.42 kg/m3.
For `CCC(=O)CC` [pentan-3-one], the viscosity ([1]; 298.15 K) was 0.442 ± 0.005 mPa·s, the mass density ([1]; 298.15 K) was 809.38 ± 0.31 kg/m3 and the viscosity ([1]; 308.15 K) was 0.398 ± 0.004 mPa·s. The mass density ([1]; 308.15 K) was 799.55 ± 0.31 kg/m3, the viscosity ([1]; 318.15 K) was 0.362 ± 0.004 mPa·s and the mass density ([1]; 318.15 K) was 789.63 ± 0.31 kg/m3.
Molecule `CCC(=O)CC` [pentan-3-one] + CCOC(=O)CCl has a viscosity ([2]; 298.15 K, x1 = 1) of 0.442 ± 0.005 mPa·s, a mass density ([2]; 298.15 K, x1 = 1) of 809.38 ± 0.31 kg/m3 and a viscosity ([2]; 308.15 K, x1 = 1) of 0.398 ± 0.004 mPa·s. It also gave a mass density ([2]; 308.15 K, x1 = 1) of 799.55 ± 0.31 kg/m3, a viscosity ([2]; 318.15 K, x1 = 1) of 0.362 ± 0.004 mPa·s and a mass density ([2]; 318.15 K, x1 = 1) of 789.63 ± 0.31 kg/m3.
